Data from the NIST ThermoML archive (doi:10.1021/je800520w).
Numbers after ± are expanded uncertainties.

Key:
[1] = 293.15 K; 101.33 kPa; Liquid; Pycnometric method
[2] = refractive index (Na D-line) (dimensionless); conditions: 293.15 K; 101.33 kPa; Liquid; Standard Abbe refractometry

Compound	mass density [1] [kg/m3]	refractive index [2]
CC(C)O [propan-2-ol]	784.9 ± 0.5	1.378 ± 0.0005
CO [methanol]	791.7 ± 0.5	1.3291 ± 0.0005
CCCO [propan-1-ol]	803.8 ± 0.5	1.3853 ± 0.0005
CCCCCCO [hexan-1-ol]	813.8 ± 0.5	1.4175 ± 0.0005

Continued, values first:

mass density [1] [kg/m3]	refractive index [2]	Compound
812.9 ± 0.5	1.4092 ± 0.0005	CCCCCO [pentan-1-ol]
810.3 ± 0.5	1.3997 ± 0.0005	CCCCO [butan-1-ol]
802.6 ± 0.5	1.3955 ± 0.0005	CCC(C)O (centres undefined) [butan-2-ol]
